pKi: −log10 of the molar value.
Each compound was assayed against T1, human Factor Xa (Homo sapiens, UniProt P00742) (assay: Inhibition constants for human factor Xa, chromogenic substrate assay). Details: 25° C., Pefachrome FXa substrate, average of at least three determinations; read-out: Ki h FXa.
T1 construct: human Factor Xa from Enzyme Research Laboratories; purchased Enzyme Research Laboratories
Type: biochemical
Procedure: (§1) The inhibitory effect against the individual purified enzymes was determined in analogy to a previously disclosed method (Stürzebecher et al., J. Med. Chem., 40, 3091-3099 (1997)).
(§2) 200 μL of TBS (0.05 M trishydroxymethylaminomethane; 0.154 M NaCl, 2% ethanol, pH 8.0)
(§3) The release of p-nitroaniline (p-NA, the chromogenic product of the proteolytic activity), was determined by change in absorbance at 405 nm. The equilibrium rates were used to calculate the inhibitor/enzyme dissociation constant (Ki values) by parameter fitting in accordance with the rate equation for competitive inhibition using GraFit (version 4 from Erithacus). The results are reported as Ki values (nanomolar) in table 7 and are the average of at least three determinations.

T1 sequence (P00742 235-488 limits assumed): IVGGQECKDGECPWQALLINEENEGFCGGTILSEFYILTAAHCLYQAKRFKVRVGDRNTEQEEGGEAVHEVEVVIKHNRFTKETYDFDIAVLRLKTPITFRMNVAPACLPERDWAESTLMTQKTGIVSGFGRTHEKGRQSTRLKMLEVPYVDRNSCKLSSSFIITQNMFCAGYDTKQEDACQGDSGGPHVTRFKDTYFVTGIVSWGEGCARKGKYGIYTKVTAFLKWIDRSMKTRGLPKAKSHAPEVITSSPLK
T1 sequence (P00742 41-179 partner limits assumed): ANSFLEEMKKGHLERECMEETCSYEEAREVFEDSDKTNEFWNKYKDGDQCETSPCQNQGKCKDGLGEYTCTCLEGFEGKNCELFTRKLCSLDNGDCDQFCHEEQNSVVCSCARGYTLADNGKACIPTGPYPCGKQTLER

Structure (SMILES)	pKi
NCc1ccc(Cl)cc1CNC(=O)[C@@H]1CCCN1C(=O)[C@@H](CC(=O)N1CCNCC1)NS(=O)(=O)Cc1ccccc1 [Compound 2.19]	8.82
O=C(NCc1cc(Cl)ccc1-n1cnnn1)[C@@H]1CCCN1C(=O)[C@@H](CCC(=O)N1CCOCC1)NS(=O)(=O)Cc1ccccc1 [Compound 2.20]	8.42
O=C(NCc1cc(Cl)ccc1-n1cnnn1)[C@@H]1C[C@H](O)CN1C(=O)[C@@H](CCC(=O)N1CCOCC1)NS(=O)(=O)Cc1ccccc1 [Compound 2.21]	8.28

These compounds were tested against T2, Human tissue-type plasminogen activator (h t-PA) (Homo sapiens, UniProt P00750) (assay: Inhibition of human tissue-type plasminogen activator (reference enzyme)). Details: Pefachrome tPA substrate; read-out: Ki h t-PA.
T2 construct: purchased Boehringer Ingelheim Actilyse
Type: biochemical
Procedure: The equilibrium rates were used to calculate the inhibitor/enzyme dissociation constant (Ki values) by parameter fitting in accordance with the rate equation for competitive inhibition using GraFit (version 4 from Erithacus).
(§4) Dissociation constants were calculated as described herein.

T2 sequence (P00750 36-562): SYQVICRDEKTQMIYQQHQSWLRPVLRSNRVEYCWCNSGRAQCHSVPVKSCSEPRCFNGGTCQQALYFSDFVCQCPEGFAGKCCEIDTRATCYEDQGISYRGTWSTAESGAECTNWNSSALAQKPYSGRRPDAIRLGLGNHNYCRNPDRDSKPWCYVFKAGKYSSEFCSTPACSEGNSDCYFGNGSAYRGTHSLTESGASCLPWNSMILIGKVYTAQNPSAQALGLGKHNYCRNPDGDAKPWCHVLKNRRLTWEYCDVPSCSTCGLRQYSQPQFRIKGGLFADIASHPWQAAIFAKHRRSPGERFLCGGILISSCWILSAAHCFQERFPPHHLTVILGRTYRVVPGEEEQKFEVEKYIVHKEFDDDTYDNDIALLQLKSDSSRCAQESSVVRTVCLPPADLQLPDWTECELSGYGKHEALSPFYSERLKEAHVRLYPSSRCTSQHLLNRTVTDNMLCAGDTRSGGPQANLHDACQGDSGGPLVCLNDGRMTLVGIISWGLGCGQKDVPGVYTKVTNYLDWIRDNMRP

Structure (SMILES)	pKi
NCc1ccc(Cl)cc1CNC(=O)[C@@H]1CCCN1C(=O)[C@@H](CC(=O)N1CCNCC1)NS(=O)(=O)Cc1ccccc1 [Compound 2.19]	< 5.30
O=C(NCc1cc(Cl)ccc1-n1cnnn1)[C@@H]1CCCN1C(=O)[C@@H](CCC(=O)N1CCOCC1)NS(=O)(=O)Cc1ccccc1 [Compound 2.20]	< 4.82
O=C(NCc1cc(Cl)ccc1-n1cnnn1)[C@@H]1C[C@H](O)CN1C(=O)[C@@H](CCC(=O)N1CCOCC1)NS(=O)(=O)Cc1ccccc1 [Compound 2.21]	< 4.70

The compounds below were run against T3, Subcomponent "s" of Human Complement Component 1 (h C1s) (Homo sapiens, UniProt P09871) (assay: Inhibition of human C1s (reference enzyme)). Details: S-2314 substrate; read-out: Ki h Cls.
T3 construct: purchased Calbiochem
T3 sequence (P09871 438-688 limits assumed): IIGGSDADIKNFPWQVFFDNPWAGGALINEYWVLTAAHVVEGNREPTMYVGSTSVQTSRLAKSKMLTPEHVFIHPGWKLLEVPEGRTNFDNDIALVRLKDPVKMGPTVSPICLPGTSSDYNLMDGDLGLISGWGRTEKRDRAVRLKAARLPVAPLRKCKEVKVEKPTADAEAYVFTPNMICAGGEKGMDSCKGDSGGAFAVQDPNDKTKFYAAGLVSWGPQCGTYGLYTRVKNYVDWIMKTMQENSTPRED
T3 sequence (P09871 16-437 partner limits assumed): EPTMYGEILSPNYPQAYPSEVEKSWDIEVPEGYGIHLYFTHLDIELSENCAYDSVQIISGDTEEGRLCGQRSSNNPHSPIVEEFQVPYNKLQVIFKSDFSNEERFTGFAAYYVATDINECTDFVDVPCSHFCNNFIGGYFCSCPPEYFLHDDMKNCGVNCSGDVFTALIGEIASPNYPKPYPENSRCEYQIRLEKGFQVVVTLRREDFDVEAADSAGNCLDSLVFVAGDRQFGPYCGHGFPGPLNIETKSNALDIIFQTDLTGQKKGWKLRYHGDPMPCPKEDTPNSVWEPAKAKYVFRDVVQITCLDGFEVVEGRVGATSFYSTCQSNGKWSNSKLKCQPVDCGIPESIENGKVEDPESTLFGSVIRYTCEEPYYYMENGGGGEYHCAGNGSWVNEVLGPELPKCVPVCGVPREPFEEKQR
Type: biochemical
Procedure: as §1, §3, §4

Structure (SMILES)	pKi
NCc1ccc(Cl)cc1CNC(=O)[C@@H]1CCCN1C(=O)[C@@H](CC(=O)N1CCNCC1)NS(=O)(=O)Cc1ccccc1 [Compound 2.19]	< 4.00
O=C(NCc1cc(Cl)ccc1-n1cnnn1)[C@@H]1CCCN1C(=O)[C@@H](CCC(=O)N1CCOCC1)NS(=O)(=O)Cc1ccccc1 [Compound 2.20]	< 4.12
O=C(NCc1cc(Cl)ccc1-n1cnnn1)[C@@H]1C[C@H](O)CN1C(=O)[C@@H](CCC(=O)N1CCOCC1)NS(=O)(=O)Cc1ccccc1 [Compound 2.21]	< 4.30

Each compound was assayed against T4, Human urinary kallikrein (h uKK) (Homo sapiens, UniProt P06870) (assay: Inhibition of human urinary kallikrein (reference enzyme)). Details: S-2266 substrate.
T4 construct: purchased Lee Biosolutions
Type: biochemical
Procedure: as §1, §3, §4

T4 sequence (P06870 25-262): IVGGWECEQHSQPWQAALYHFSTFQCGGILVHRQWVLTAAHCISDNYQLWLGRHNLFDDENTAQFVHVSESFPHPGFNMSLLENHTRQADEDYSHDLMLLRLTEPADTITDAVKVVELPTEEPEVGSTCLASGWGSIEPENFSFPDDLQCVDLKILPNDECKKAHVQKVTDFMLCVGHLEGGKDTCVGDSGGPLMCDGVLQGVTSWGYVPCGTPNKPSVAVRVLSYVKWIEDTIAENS

Structure (SMILES)	pKi
NCc1ccc(Cl)cc1CNC(=O)[C@@H]1CCCN1C(=O)[C@@H](CC(=O)N1CCNCC1)NS(=O)(=O)Cc1ccccc1 [Compound 2.19]	< 5.30
O=C(NCc1cc(Cl)ccc1-n1cnnn1)[C@@H]1CCCN1C(=O)[C@@H](CCC(=O)N1CCOCC1)NS(=O)(=O)Cc1ccccc1 [Compound 2.20]	< 4.30
O=C(NCc1cc(Cl)ccc1-n1cnnn1)[C@@H]1C[C@H](O)CN1C(=O)[C@@H](CCC(=O)N1CCOCC1)NS(=O)(=O)Cc1ccccc1 [Compound 2.21]	< 4.00

What follows are compounds tested against T5, Human Activated Protein C (h aPC) (Homo sapiens, UniProt P04070) (assay: Inhibition of human activated protein C (reference enzyme)). Details: Pefachrome PCa substrate.
T5 construct: purchased Enzyme Research Laboratories
Type: biochemical
Procedure: as §1, §3, §4

T5 sequence (P04070 212-450 limits assumed): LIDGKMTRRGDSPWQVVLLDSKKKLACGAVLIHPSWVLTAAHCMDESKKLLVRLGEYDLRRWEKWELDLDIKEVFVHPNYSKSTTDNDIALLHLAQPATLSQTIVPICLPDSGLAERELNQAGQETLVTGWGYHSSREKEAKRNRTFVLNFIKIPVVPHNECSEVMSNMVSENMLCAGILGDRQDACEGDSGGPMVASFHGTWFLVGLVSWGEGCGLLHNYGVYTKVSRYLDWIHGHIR
T5 sequence (P04070 43-197 partner limits assumed): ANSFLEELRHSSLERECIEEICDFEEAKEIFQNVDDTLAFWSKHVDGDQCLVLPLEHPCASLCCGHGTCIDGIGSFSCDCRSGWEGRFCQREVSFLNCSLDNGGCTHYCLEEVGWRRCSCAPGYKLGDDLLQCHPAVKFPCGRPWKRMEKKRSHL

Structure (SMILES)	pKi
NCc1ccc(Cl)cc1CNC(=O)[C@@H]1CCCN1C(=O)[C@@H](CC(=O)N1CCNCC1)NS(=O)(=O)Cc1ccccc1 [Compound 2.19]	< 4.52
O=C(NCc1cc(Cl)ccc1-n1cnnn1)[C@@H]1CCCN1C(=O)[C@@H](CCC(=O)N1CCOCC1)NS(=O)(=O)Cc1ccccc1 [Compound 2.20]	< 4.52
O=C(NCc1cc(Cl)ccc1-n1cnnn1)[C@@H]1C[C@H](O)CN1C(=O)[C@@H](CCC(=O)N1CCOCC1)NS(=O)(=O)Cc1ccccc1 [Compound 2.21]	< 4.30

Each compound was assayed against T6, Human urokinase type plasminogen activator (h u-PA) (Homo sapiens, UniProt P00749) (assay: Inhibition of human urokinase type plasminogen activator (reference enzyme)). Details: H-Glu-Gly-Arg-pNA substrate.
T6 construct: purchased MEDAC GmbH Urokinase HS medac
Type: biochemical
Procedure: as §1, §3, §4

Structure (SMILES)	pKi
NCc1ccc(Cl)cc1CNC(=O)[C@@H]1CCCN1C(=O)[C@@H](CC(=O)N1CCNCC1)NS(=O)(=O)Cc1ccccc1 [Compound 2.19]	< 4.82
O=C(NCc1cc(Cl)ccc1-n1cnnn1)[C@@H]1CCCN1C(=O)[C@@H](CCC(=O)N1CCOCC1)NS(=O)(=O)Cc1ccccc1 [Compound 2.20]	< 4.00
O=C(NCc1cc(Cl)ccc1-n1cnnn1)[C@@H]1C[C@H](O)CN1C(=O)[C@@H](CCC(=O)N1CCOCC1)NS(=O)(=O)Cc1ccccc1 [Compound 2.21]	< 4.00

These compounds were tested against T7, Human plasmin (h plasmin) (Homo sapiens, UniProt P00747) (assay: Inhibition of human plasmin (reference enzyme)). Details: Chromozym PL substrate.
T7 construct: purchased Calbiochem
Type: biochemical
Procedure: as §1, §3, §4

T7 sequence (P00747 581-810 limits assumed): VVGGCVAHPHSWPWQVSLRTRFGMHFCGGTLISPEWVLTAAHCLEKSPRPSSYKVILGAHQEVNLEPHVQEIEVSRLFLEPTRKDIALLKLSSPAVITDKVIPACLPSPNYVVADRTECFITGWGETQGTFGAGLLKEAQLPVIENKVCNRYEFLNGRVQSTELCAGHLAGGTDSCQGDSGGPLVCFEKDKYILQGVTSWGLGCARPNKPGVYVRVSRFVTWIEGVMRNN
T7 sequence (P00747 97-580 partner limits assumed): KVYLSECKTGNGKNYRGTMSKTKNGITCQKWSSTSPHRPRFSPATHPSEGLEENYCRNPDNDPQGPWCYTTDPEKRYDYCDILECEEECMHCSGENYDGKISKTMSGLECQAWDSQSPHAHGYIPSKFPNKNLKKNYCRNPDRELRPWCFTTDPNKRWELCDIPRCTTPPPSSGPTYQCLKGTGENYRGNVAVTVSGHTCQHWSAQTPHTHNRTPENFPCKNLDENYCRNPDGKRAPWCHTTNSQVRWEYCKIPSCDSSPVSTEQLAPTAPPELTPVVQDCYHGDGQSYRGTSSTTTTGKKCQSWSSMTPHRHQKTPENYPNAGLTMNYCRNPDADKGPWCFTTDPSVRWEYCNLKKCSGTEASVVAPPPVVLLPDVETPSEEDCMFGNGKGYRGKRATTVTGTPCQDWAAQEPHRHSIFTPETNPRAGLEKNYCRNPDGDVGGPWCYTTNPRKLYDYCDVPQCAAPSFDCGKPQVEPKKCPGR

Structure (SMILES)	pKi
NCc1ccc(Cl)cc1CNC(=O)[C@@H]1CCCN1C(=O)[C@@H](CC(=O)N1CCNCC1)NS(=O)(=O)Cc1ccccc1 [Compound 2.19]	< 5.34
O=C(NCc1cc(Cl)ccc1-n1cnnn1)[C@@H]1CCCN1C(=O)[C@@H](CCC(=O)N1CCOCC1)NS(=O)(=O)Cc1ccccc1 [Compound 2.20]	5.14
O=C(NCc1cc(Cl)ccc1-n1cnnn1)[C@@H]1C[C@H](O)CN1C(=O)[C@@H](CCC(=O)N1CCOCC1)NS(=O)(=O)Cc1ccccc1 [Compound 2.21]	4.97

The compounds below were run against T8, Subcomponent "r" of Human Complement Component 1 (h C1r) (Homo sapiens, UniProt P00736) (assay: Inhibition of human C1r (reference enzyme)). Details: S-2314 substrate; read-out: Ki h Clr.
T8 construct: purchased Calbiochem
T8 sequence (P00736 464-705 limits assumed): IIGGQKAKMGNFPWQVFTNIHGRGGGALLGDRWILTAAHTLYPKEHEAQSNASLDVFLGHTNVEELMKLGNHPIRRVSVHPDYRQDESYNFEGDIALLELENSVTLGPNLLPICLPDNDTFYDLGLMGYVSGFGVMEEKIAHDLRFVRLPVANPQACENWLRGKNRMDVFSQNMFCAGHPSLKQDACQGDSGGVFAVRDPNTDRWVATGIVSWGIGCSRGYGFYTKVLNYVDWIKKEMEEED
T8 sequence (P00736 18-463 partner limits assumed): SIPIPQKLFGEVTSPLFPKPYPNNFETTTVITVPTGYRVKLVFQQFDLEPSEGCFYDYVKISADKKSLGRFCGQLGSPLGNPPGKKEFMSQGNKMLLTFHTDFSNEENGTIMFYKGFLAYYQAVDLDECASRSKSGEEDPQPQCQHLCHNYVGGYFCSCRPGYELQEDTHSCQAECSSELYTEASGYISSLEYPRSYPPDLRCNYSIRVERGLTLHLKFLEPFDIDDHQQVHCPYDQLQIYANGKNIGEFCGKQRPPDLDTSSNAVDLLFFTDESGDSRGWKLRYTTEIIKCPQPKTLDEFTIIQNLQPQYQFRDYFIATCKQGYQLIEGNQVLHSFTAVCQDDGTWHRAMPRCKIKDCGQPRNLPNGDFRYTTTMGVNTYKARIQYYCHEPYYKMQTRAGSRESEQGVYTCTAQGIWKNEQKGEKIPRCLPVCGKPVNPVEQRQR
Type: biochemical
Procedure: as §1, §3, §4

Structure (SMILES)	pKi
NCc1ccc(Cl)cc1CNC(=O)[C@@H]1CCCN1C(=O)[C@@H](CC(=O)N1CCNCC1)NS(=O)(=O)Cc1ccccc1 [Compound 2.19]	< 4.30
O=C(NCc1cc(Cl)ccc1-n1cnnn1)[C@@H]1CCCN1C(=O)[C@@H](CCC(=O)N1CCOCC1)NS(=O)(=O)Cc1ccccc1 [Compound 2.20]	< 4.52
O=C(NCc1cc(Cl)ccc1-n1cnnn1)[C@@H]1C[C@H](O)CN1C(=O)[C@@H](CCC(=O)N1CCOCC1)NS(=O)(=O)Cc1ccccc1 [Compound 2.21]	< 4.00

The compounds below were run against T9, human factor IIa (human alpha-thrombin) (Homo sapiens, UniProt P00734) (assay: Inhibition constants for human factor IIa, chromogenic substrate assay). Details: 25° C., Pefachrome tPA substrate, average of at least three determinations; read-out: Ki h FIIa.
T9 construct: human alpha-thrombin from Enzyme Research Laboratories; purchased Enzyme Research Laboratories
Type: biochemical
Procedure: as §1, §2, §3

Structure (SMILES)	pKi
NCc1ccc(Cl)cc1CNC(=O)[C@@H]1CCCN1C(=O)[C@@H](CC(=O)N1CCNCC1)NS(=O)(=O)Cc1ccccc1 [Compound 2.19]	8.62
O=C(NCc1cc(Cl)ccc1-n1cnnn1)[C@@H]1CCCN1C(=O)[C@@H](CCC(=O)N1CCOCC1)NS(=O)(=O)Cc1ccccc1 [Compound 2.20]	8.51
O=C(NCc1cc(Cl)ccc1-n1cnnn1)[C@@H]1C[C@H](O)CN1C(=O)[C@@H](CCC(=O)N1CCOCC1)NS(=O)(=O)Cc1ccccc1 [Compound 2.21]	6.80

The compounds below were run against T10, Human plasma kallikrein (h PK) (Homo sapiens, UniProt P03952) (assay: Inhibition of human plasma kallikrein (reference enzyme)). Details: S2302 substrate.
T10 construct: purchased Enzyme Research Laboratories
Type: biochemical
Procedure: as §1, §3, §4

T10 sequence (P03952 391-638 limits assumed): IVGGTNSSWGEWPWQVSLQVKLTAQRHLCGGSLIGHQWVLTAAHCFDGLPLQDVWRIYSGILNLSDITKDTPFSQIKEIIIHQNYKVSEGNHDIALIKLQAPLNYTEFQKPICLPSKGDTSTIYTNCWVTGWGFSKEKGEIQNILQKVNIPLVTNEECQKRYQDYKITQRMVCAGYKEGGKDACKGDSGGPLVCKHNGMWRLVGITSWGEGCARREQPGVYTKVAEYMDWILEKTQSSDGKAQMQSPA
T10 sequence (P03952 20-390 partner limits assumed): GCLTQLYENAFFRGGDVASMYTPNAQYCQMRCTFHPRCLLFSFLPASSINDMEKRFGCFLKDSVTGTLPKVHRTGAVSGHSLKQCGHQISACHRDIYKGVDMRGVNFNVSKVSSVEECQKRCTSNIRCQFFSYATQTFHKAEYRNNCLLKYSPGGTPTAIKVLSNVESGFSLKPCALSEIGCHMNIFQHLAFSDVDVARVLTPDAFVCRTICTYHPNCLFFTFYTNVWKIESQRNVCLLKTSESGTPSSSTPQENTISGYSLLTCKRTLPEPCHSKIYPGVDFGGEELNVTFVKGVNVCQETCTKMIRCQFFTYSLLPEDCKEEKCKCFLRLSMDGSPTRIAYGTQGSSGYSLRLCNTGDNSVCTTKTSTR

Structure (SMILES)	pKi
NCc1ccc(Cl)cc1CNC(=O)[C@@H]1CCCN1C(=O)[C@@H](CC(=O)N1CCNCC1)NS(=O)(=O)Cc1ccccc1 [Compound 2.19]	5.99
O=C(NCc1cc(Cl)ccc1-n1cnnn1)[C@@H]1CCCN1C(=O)[C@@H](CCC(=O)N1CCOCC1)NS(=O)(=O)Cc1ccccc1 [Compound 2.20]	6.13
O=C(NCc1cc(Cl)ccc1-n1cnnn1)[C@@H]1C[C@H](O)CN1C(=O)[C@@H](CCC(=O)N1CCOCC1)NS(=O)(=O)Cc1ccccc1 [Compound 2.21]	5.92
